# Where a name gives a salt, the structure may show the parent alone.
# Target: recombinant Human Phosphodiesterase B2 (PDE4B2) (Homo sapiens, UniProt Q07343)
# Assay: Human Phosphodiesterase B2 Radiometric Assay (yttrium silicate SPA beads, [3H]cyclic AMP)
# Assay type: biochemical
# Settings: recombinant human PDE4B2, radiometric SPA assay, 8 nM [3H]cyclic AMP; read-out: PDE4B2 pIC50 (converted)
# Method in brief: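 Compounds were preincubated 30 min at 30 °C with 0.1 mg/mL PDE4B2 in 50 mM HEPES pH 7.5, 8.3 mM MgCl2, 1.7 mM EGTA, 0.01% Brij 35. Then 8 nM [3H]cAMP was added for 20 min, stopped with yttrium silicate SPA beads plus 18 mM ZnSO4 capturing product 5′AMP; pIC50 by curve fitting.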
# Sequence of recombinant Human Phosphodiesterase B2 (PDE4B2) (Q07343 1-564 isoform Q07343-2): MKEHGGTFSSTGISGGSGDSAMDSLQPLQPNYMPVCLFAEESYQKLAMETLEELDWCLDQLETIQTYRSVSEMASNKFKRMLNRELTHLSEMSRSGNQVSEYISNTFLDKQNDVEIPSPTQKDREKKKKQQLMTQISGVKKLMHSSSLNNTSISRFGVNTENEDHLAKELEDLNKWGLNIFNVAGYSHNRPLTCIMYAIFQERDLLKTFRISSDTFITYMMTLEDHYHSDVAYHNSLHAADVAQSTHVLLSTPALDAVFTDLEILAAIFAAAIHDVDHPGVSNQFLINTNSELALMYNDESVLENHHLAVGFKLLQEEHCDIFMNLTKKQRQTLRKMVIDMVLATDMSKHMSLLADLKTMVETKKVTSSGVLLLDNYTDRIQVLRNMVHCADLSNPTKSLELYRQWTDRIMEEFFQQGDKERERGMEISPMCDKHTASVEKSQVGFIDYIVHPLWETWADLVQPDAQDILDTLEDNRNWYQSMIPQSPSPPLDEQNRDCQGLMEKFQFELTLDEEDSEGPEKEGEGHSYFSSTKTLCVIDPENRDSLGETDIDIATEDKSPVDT
row,IC50,SMILES
1,39.8 pM,"Cc1nc(C(=O)N[C@H]2CC[C@@H](n3c(=O)c4cc(F)cnc4n(-c4cccc(-c5ccc(CN6C[C@@H](C)N[C@@H](C)C6)cc5)c4)c3=O)CC2)cs1 [Example 301, N-{cis-4-[1-(4′-{[(3R,5S)-3,5-dimethylpiperazin-1-yl]methyl}biphenyl-3-yl)-6-fluoro-2,4-dioxo-1,4-dihydropyrido[2,3-d]pyrimidin-3(2H)-yl]cyclohexyl}-2-methyl-1,3-thiazole-4-carboxamide]"
2,158 pM,"O=c1c2cc(F)cnc2n(-c2cccc(-c3ccc(O)cc3CN3CCOCC3)c2)c(=O)n1[C@H]1CC[C@@H](NCc2cccn3ccnc23)CC1 [Example 373, 6-fluoro-1-[4′-hydroxy-2′-(morpholin-4-ylmethyl)biphenyl-3-yl]-3-{cis-4-[(imidazo[1,2-a]pyridin-8-ylmethyl)amino]cyclohexyl} pyrido[2,3-d]pyrimidine-2,4(1H,3H)-dione]"
3,10 pM,"Cc1cccc(C(=O)N[C@H]2CC[C@@H](n3c(=O)c4cc(F)cnc4n(-c4cccc(-c5ccc(CN6C[C@@H](C)N[C@@H](C)C6)cc5)c4)c3=O)CC2)n1 [Example 290, N-{cis-4-[1-(4′-{[(3R,5S)-3,5-dimethylpiperazin-1-yl]methyl}biphenyl-3-yl)-6-fluoro-2,4-dioxo-1,4-dihydropyrido[2,3-d]pyrimidin-3(2H)-yl]cyclohexyl}-6-methylpyridine-2-carboxamide]"
4,2510 pM,"O=C(N[C@H]1CC[C@@H](n2c(=O)c3cc(F)cnc3n(-c3cccc(-c4ccc(CN5CCCOCC5)cc4)c3)c2=O)CC1)c1ccc(OCCN2CCCC2)cc1 [Example 307, N-{cis-4-[6-fluoro-1-[4′-(1,4-oxazepan-4-ylmethyl)biphenyl-3-yl]-2,4-dioxo-1,4-dihydropyrido[2,3-d]pyrimidin-3(2H)-yl]cyclohexyl}-4-(2-pyrrolidin-1-ylethoxy)benzamide]"
5,6.31 pM,"C[C@@H]1CN(Cc2ccc(-c3cccc(-n4c(=O)n([C@H]5CC[C@@H](NC(=O)c6cn7cc(F)ccc7n6)CC5)c(=O)c5cc(F)cnc54)c3)cc2)C[C@H](C)N1 [Example 270, N-{cis-4-[1-(4′-{[(3R,5S)-3,5-Dimethylpiperazin-1-yl]methyl}biphenyl-3-yl)-6-fluoro-2,4-dioxo-1,4-dihydropyrido[2,3-d]pyrimidin-3(2H)-yl]cyclohexyl}-6-fluoroimidazo[1,2-a]pyridine-2-carboxamide]"
6,100 pM,"Cc1nc(C(=O)N[C@H]2CC[C@@H](n3c(=O)c4cc(F)cnc4n(-c4cccc(-c5ccc(CN6CCCN(C)CC6)cc5)c4)c3=O)CC2)cs1 [Example 309, N-{cis-4-[6-fluoro-1-{4′-[(4-methyl-1,4-diazepan-1-yl)methyl]biphenyl-3-yl}-2,4-dioxo-1,4-dihydropyrido[2,3-d]pyrimidin-3(2H)-yl]cyclohexyl}-2-methyl-1,3-thiazole-4-carboxamide]"
7,398 pM,"O=c1c2cc(F)cnc2n(-c2cccc(-c3ccc(O)cc3CN3CC[C@@H](O)C3)c2)c(=O)n1[C@H]1CC[C@@H](NCc2cn3cc(F)ccc3n2)CC1 [Example 326, 6-fluoro-3-(cis-4-{[(6-fluoroimidazo[1,2-a]pyridin-2-yl)methyl]amino}cyclohexyl)-1-(4′-hydroxy-2′-{[(3R)-3-hydroxypyrrolidin-1-yl]methyl}biphenyl-3-yl)pyrido[2,3-d]pyrimidine-2,4(1H,3H)-dione]"

# The remaining lines, values behind:
row,SMILES,IC50
1,O=c1c2cc(F)cnc2n(-c2cccc(-c3ccc(O)cc3CN3CCOCC3)c2)c(=O)n1[C@H]1CC[C@@H](NCc2cn3cc(F)ccc3n2)CC1 [Example 246],20 pM
2,"CN(C)C1(C(=O)N[C@H]2CC[C@@H](n3c(=O)c4cc(F)cnc4n(-c4cccc(-c5ccc(CN6CCCCC6)cc5)c4)c3=O)CC2)CC1 [Example 125, 1-(dimethylamino)-N-{cis-4-[6-fluoro-2,4-dioxo-1-[4′-(piperidin-1-ylmethyl)biphenyl-3-yl]-1,4-dihydropyrido[2,3-d]pyrimidin-3(2H)-yl]cyclohexyl}cyclopropane-carboxamide]",158 pM
3,"Cc1cc(C(=O)N[C@H]2CC[C@@H](n3c(=O)c4cc(F)cnc4n(-c4cccc(-c5ccc(CN6CCN(c7ccccn7)CC6)cc5)c4)c3=O)CC2)nn1C [Example 214, N-{cis-4-[6-fluoro-2,4-dioxo-1-{4′-[(4-pyridin-2-ylpiperazin-1-yl)methyl]biphenyl-3-yl}-1,4-dihydropyrido[2,3-d]pyrimidin-3(2H)-yl]cyclohexyl}-1,5-dimethyl-1H-pyrazole-3-carboxamide]",25.1 pM
4,"Cc1cc(C(=O)N[C@H]2CC[C@@H](n3c(=O)c4cc(F)cnc4n(-c4cccc(-c5ccc(CN6CCC(N7CCCC7)CC6)cc5)c4)c3=O)CC2)nn1C [Example 118, N-{cis-4-[6-fluoro-2,4-dioxo-1-{4′-[(4-pyrrolidin-1-ylpiperidin-1-yl)methyl]biphenyl-3-yl}-1,4-dihydropyrido[2,3-d]pyrimidin-3(2H)-yl]cyclohexyl}-1,5-dimethyl-1H-pyrazole-3-carboxamide]",25.1 pM
5,"NCc1ccc(-c2cccc(-n3c(=O)n([C@H]4CC[C@@H](NC(=O)c5cn6cc(F)ccc6n5)CC4)c(=O)c4cc(F)cnc43)c2)cc1 [Example 32, N-{cis-4-[1-[4′-(aminomethyl)biphenyl-3-yl]-6-fluoro-2,4-dioxo-1,4-dihydropyrido[2,3-d]pyrimidin-3(2H)-yl]cyclohexyl}-6-fluoroimidazo[1,2-a]pyridine-2-carboxamide Hydrochloride]",158 pM
6,"O=C(N[C@H]1CC[C@@H](n2c(=O)c3cc(F)cnc3n(-c3cccc(-c4ccc(CNC5CCNCC5)cc4)c3)c2=O)CC1)c1cn2cc(F)ccc2n1 [Example 268, 6-Fluoro-N-{cis-4-[6-fluoro-2,4-dioxo-1-{4′-[(piperidin-4-ylamino)methyl]biphenyl-3-yl}-1,4-dihydropyrido[2,3-d]pyrimidin-3(2H)-yl]cyclohexyl}imidazo[1,2-a]pyridine-2-carboxamide]",12.6 pM
7,"CN(C)CCOc1ccc(-c2cccc(-n3c(=O)n([C@H]4CC[C@@H](NC(=O)c5cn6cc(F)ccc6n5)CC4)c(=O)c4cc(F)cnc43)c2)cc1 [Example 78, N-{cis-4-[1-{4′-[2-(dimethylamino)ethoxy]biphenyl-3-yl}-6-fluoro-2,4-dioxo-1,4-dihydropyrido[2,3-d]pyrimidin-3(2H)-yl]cyclohexyl}-6-fluoroimidazo[1,2-a]pyridine-2-carboxamide]",39.8 pM
8,"O=C(N[C@H]1CC[C@@H](n2c(=O)c3cc(F)cnc3n(-c3cccc(-c4ccc(CCCN5CCNCC5)cc4)c3)c2=O)CC1)c1cn2cc(F)ccc2n1 [Example 97, 6-fluoro-N-{cis-4-[6-fluoro-2,4-dioxo-1-[4′-(3-piperazin-1-ylpropyl)biphenyl-3-yl]-1,4-dihydropyrido[2,3-d]pyrimidin-3(2H)-yl]cyclohexyl}imidazo[1,2-a]pyridine-2-carboxamide]",6.31 pM
9,"Cc1ccccc1-c1cccc(-n2c(=O)n([C@H]3CC[C@@H](N)CC3)c(=O)c3cc(F)cnc32)c1 [Example 52, 3-(cis-4-aminocyclohexyl)-6-fluoro-1-(2′-methylbiphenyl-3-yl)pyrido[2,3-d]pyrimidine-2,4(1H,3H)-dione]",2510 pM
10,C[C@@H]1CN(Cc2cc(O)ccc2-c2cccc(-n3c(=O)n([C@H]4CC[C@@H](NCc5cn6cc(F)ccc6n5)CC4)c(=O)c4cc(F)cnc43)c2)C[C@H](C)O1 [Example 256],15.8 pM
11,"CN(Cc1ccc(-c2cccc(-n3c(=O)n([C@H]4CC[C@@H](NC(=O)c5cn6c(n5)CCCC6)CC4)c(=O)c4cc(F)cnc43)c2)cc1)C(C)(C)C [Example 136, N-{cis-4-[1-(4′-{[tert-butyl(methyl)amino]methyl}biphenyl-3-yl)-6-fluoro-2,4-dioxo-1,4-dihydropyrido[2,3-d]pyrimidin-3(2H)-yl]cyclohexyl}-5,6,7,8-tetrahydroimidazo[1,2-a]pyridine-2-carboxamide]",31.6 pM
12,"Cc1cc(CN[C@H]2CC[C@@H](n3c(=O)c4cc(F)cnc4n(-c4cccc(-c5ccc(O)cc5CN5CCOCC5)c4)c3=O)CC2)nn1C [Example 251, 3-(cis-4-{[(1,5-Dimethyl-1H-pyrazol-3-yl)methyl]amino}cyclohexyl)-6-fluoro-1-[4′-hydroxy-2′-(morpholin-4-ylmethyl)biphenyl-3-yl]pyrido[2,3-d]pyrimidine-2,4(1H,3H)-dione]",100 pM
13,"CC(=O)N[C@H]1CC[C@@H](n2c(=O)c3cc(F)cnc3n(-c3cccc(-c4ccc(CN(C)C)cc4)c3)c2=O)CC1 [Example 89, N-{cis-4-[1-{4′-[(dimethylamino)methyl]biphenyl-3-yl}-6-fluoro-2,4-dioxo-1,4-dihydropyrido[2,3-d]pyrimidin-3(2H)-yl]cyclohexyl}acetamide]",2000 pM
14,"CN(C)CCN(C)Cc1ccc(-c2cccc(-n3c(=O)n([C@H]4CC[C@@H](NC(=O)C5(N(C)C)CC5)CC4)c(=O)c4cc(F)cnc43)c2)cc1 [Example 110, 1-(dimethylamino)-N-{cis-4-[1-(4′-{[[2-(dimethylamino)ethyl](methyl)amino]methyl}biphenyl-3-yl)-6-fluoro-2,4-dioxo-1,4-dihydropyrido[2,3-d]pyrimidin-3(2H)-yl]cyclohexyl}cyclopropanecarboxamide]",7.94 pM
15,"CSc1ncc(-c2cccc(-n3c(=O)n([C@H]4CC[C@@H](NC(=O)c5cn6cc(F)ccc6n5)CC4)c(=O)c4cc(F)cnc43)c2)cn1 [Example 30, 6-fluoro-N-{cis-4-[6-fluoro-1-{3-[2-(methylthio)pyrimidin-5-yl]phenyl}-2,4-dioxo-1,4-dihydropyrido[2,3-d]pyrimidin-3(2H)-yl]cyclohexyl}imidazo[1,2-a]pyridine-2-carboxamide.]",15.8 pM
16,"O=C(N[C@H]1CC[C@@H](n2c(=O)c3cc(F)cnc3n(-c3ccc4c(cnn4Cc4ccccc4)c3)c2=O)CC1)c1cn2ccccc2n1 [Example 35, N-{cis-4-[1-(1-benzyl-1H-indazol-5-yl)-6-fluoro-2,4-dioxo-1,4-dihydropyrido[2,3-d]pyrimidin-3(2H)-yl]cyclohexyl}imidazo[1,2-a]pyridine-2-carboxamide]",6310 pM

# Reference: US20100204203A1, “Chemical Compounds 637: Pyridopyrimidinediones as PDE4 Inhibitors” (priority 2007, published 2010)
